Measurements as given in publication PMC6726485 (Nature, 2019).

Tests used:
[1] = target: T1, mitoKATP (endogenous, mouse liver mitochondria) (Mus musculus, UniProt Q9CXJ4); test: […]+ uptake, isolated liver mitochondria; assay type: biochemical; conditions: 1 mM MgCl2, 1 uM oligomycin, pH 7.2
T1 sequence (Q9CXJ4 26-717): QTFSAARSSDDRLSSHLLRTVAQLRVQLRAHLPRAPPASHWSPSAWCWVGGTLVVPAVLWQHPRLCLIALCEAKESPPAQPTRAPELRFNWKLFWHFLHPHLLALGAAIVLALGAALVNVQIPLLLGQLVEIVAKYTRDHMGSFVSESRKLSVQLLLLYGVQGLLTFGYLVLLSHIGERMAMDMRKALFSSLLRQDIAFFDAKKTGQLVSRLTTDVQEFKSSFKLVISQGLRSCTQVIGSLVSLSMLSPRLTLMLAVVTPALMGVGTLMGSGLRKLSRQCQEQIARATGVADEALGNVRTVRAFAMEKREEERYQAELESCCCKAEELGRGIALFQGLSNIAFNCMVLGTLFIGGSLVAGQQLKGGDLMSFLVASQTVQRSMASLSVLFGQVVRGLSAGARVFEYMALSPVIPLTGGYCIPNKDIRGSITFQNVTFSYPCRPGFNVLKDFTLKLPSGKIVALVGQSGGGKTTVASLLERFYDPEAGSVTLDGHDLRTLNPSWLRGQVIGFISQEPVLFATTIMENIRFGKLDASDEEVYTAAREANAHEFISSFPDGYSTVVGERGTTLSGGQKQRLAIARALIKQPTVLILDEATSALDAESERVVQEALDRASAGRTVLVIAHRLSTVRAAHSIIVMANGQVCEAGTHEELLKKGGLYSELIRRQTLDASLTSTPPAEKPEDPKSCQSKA
T1 sequence (Q3URS9 36-406 partner): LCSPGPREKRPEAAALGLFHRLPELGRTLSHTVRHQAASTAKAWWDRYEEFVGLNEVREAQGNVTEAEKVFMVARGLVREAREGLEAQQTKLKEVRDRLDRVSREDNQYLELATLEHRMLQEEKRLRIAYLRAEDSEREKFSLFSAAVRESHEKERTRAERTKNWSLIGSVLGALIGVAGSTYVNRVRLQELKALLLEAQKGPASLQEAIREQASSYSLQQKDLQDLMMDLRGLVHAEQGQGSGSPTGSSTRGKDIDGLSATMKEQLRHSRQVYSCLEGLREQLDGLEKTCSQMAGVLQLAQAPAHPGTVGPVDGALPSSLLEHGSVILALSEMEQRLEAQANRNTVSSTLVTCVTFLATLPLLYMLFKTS

[2] = target: T2, mitoKATP (endogenous, HeLa mitochondria) (Homo sapiens, UniProt Q9NUT2); test: mitochondrial swelling; assay type: biochemical; conditions: KCl swelling buffer, 1 mM MgCl2, 1 uM oligomycin, pH 7.2
T2 sequence (Q9NUT2 26-735): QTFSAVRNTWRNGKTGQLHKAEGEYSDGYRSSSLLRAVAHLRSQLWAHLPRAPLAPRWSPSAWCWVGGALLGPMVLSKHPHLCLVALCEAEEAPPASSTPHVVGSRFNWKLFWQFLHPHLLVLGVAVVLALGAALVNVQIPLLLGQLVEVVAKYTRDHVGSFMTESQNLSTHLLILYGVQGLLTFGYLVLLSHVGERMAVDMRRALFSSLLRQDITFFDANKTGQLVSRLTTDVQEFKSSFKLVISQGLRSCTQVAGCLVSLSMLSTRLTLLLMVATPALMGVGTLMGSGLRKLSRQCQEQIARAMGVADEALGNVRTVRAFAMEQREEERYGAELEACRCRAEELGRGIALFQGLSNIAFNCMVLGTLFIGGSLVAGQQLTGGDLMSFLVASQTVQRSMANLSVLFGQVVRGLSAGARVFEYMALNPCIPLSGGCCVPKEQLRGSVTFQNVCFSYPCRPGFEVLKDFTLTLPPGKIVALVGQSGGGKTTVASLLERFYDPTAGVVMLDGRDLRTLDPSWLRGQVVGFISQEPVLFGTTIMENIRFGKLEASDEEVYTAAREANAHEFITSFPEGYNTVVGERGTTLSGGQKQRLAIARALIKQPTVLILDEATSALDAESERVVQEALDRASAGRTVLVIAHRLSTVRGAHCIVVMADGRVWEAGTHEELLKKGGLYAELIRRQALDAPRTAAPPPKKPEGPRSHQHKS
T2 sequence (Q96ER9 36-411 partner): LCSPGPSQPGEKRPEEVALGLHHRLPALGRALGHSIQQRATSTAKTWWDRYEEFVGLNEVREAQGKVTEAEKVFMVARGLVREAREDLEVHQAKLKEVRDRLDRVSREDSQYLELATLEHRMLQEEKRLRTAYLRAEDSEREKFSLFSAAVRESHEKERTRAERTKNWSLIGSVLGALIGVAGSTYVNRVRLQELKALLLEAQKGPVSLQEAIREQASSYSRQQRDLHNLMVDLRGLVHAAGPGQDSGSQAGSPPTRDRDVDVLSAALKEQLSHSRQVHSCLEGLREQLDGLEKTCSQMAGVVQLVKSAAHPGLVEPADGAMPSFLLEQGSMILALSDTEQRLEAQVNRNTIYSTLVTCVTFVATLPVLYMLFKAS

Compound: Nc1ncnc2c1ncn2[C@@H]1O[C@H](COP(=O)(O)OP(=O)(O)OP(=O)(O)O)[C@@H](O)[C@H]1O [ATP]
- 86Rb+ uptake, isolated liver mitochondria ([1]; inhibitor, 2 mM ATP): neither ATP nor diazoxide were able to alter K^+ fluxes when Mitok was absent
- mitochondrial swelling (A520), isolated HeLa mitochondria ([2]; inhibitor): ATP decreases and diazoxide increases the swelling rates

Compound: CC1=NS(=O)(=O)c2cc(Cl)ccc2N1 [diazoxide]
- 86Rb+ uptake, isolated liver mitochondria ([1]; activator, 50 uM diazoxide): neither ATP nor diazoxide were able to alter K^+ fluxes when Mitok was absent
- mitochondrial swelling (A520), isolated HeLa mitochondria ([2]; activator): ATP decreases and diazoxide increases the swelling rates
